Assay results reported in patent US20130165368A1, “ANTIMICROBIAL COMPOUNDS” (priority 2010, published 2013).
Converted amounts (≈) assume the structure as drawn.

Tested on: MRSA EMRSA 15 21698/98
Assay: MIC agar dilution, MRSA strain 41
Assay type: cell-based
Conditions: Staphylococcus aureus, 22 hrs
Experimental: (§1) Molar equivalent concentrations were used to allow comparison between compounds of differing molecular mass. Due to weighing difficulties, any compound in solid form was melted in a water bath prior to dilution. To make ten-times strength concentrations, which takes into account agar dilution, 0.0352 mmol of each compound was weighed into plastic universal bottles and 4 mL of sterile distilled water (SDW) was added. To produce a homogenous emulsion the universals were vortexed; once achieved the emulsions were serial diluted by adding 2 mL to 2 mL of SDW.
(§2) For every 100 mL of Isosensitest agar (IST) (CM0471; Oxoid, Basingstoke, England), 3.1 g of the IST powder was added to 100 mL SDW (as per manufacturer's instructions) and sterilised for 15 minutes at 121° C. Once sterilised, the molten agar was cooled to 50° C. in a water-bath. Subsequently 4.8 g of CCEY powder (BC2160; Bioconnections, Wetherby, England), also known as Brazier's medium, was added to 100 mL SDW for every 100 mL of agar needed. This was then sterilised for 15 minutes at 121° C. Once sterilised the molten agar was cooled to 50° C. in a water-bath and 4 mL of egg-yolk emulsion (S2073; TCS Biosciences Ltd, Buckingham, United Kingdom) and 1 mL of lysed defibrinated horse blood (HB035; TCS Biosciences Ltd, Buckingham, United Kingdom) were also added for every 100 mL needed. Horse blood lysis is achieved by dilution to half concentration with SDW; when fully lysed the mixture will turn dark red in colour.
(§3) 18 mL agar was added to each universal and then poured into sterile Petri dishes. This step creates a 1/10 dilution resulting in agar plates of the required strength. Control plates for each set of strains were created by adding 18 mL of agar to 2 mL of SDW.
(§4) Suspensions of each bacterial species were prepared with a density equal to that of a 0.5 McFarland standard using a densitometer. All suspensions were made using sterile distilled water and fresh 18-20 hour cultures. As a 0.5 McFarland standard contains 1.5×10^8 CFU/mL and the multipoint inoculators applies 1 μL spots of liquid, each bacterial suspension was diluted 1/15 (20 μL suspension to 280 μL sterile distilled water).
(§5) Bacterial suspensions were prepared from fresh 18-24 hour cultures as previously described. 1 μL of each strain was inoculated onto all 100 agar plates containing a different chemical concentration and the 2 control plates. This was done using a multipoint inoculator which inoculates 20 strains per plate. All plates were incubated for 22 hours at 37° C. in aerobic conditions.
(§6) Each plate was examined for bacterial growth after 22 and 48 hours, with each being incubated in between examinations. A positive result was recorded as growth of ≧10 colonies. A negative result was recorded as growth of <10 colonies as this is equivalent to 99.9% inhibition. The lowest concentration of chemical that inhibited growth was recorded as the MIC. The results are recorded in Table IV below, where the numbers are quoted in mmol/L.
(§7) Given the positive performance of the ethoxylates of lauryl alcohol in reducing the MIC for a number of the micro-organisms tested, further MIC testing of Laureth-1 [C12E1] through to Laureth-8 [C12E8] was conducted on each of the following: • 10 strains of vancomycin-resistant enterococci (VRE)—listed in Table V below; and • 20 strains of methicillin-resistant Staphylococcus aureus (MRSA)—listed in Table VI.
(§8) The alkanol, alkanol derivatives, agar plates, and inocula were all prepared in the same way as described above.
(§9) The plates were examined in the same manner as described above and the results are recorded in Table VII below, where the numbers are quoted in mmol/L.

SMILES	MIC
CCCCCCCCCCCCOCCOCCO [L2, Diethylene Glycol Monododecyl Ether]	110 µM (≈ 30.2 µg/mL)
CCCCCCCCCCCCOCCOCCOCCO [L3, Triethylene Glycol Monododecyl Ether]	110 µM (≈ 35 µg/mL)

Same assay, conditions: Staphylococcus aureus, 48 hrs

SMILES	MIC
CCCCCCCCCCCCOCCOCCO [L2, Diethylene Glycol Monododecyl Ether]	110 µM (≈ 30.2 µg/mL)
CCCCCCCCCCCCOCCOCCOCCO [L3, Triethylene Glycol Monododecyl Ether]	110 µM (≈ 35 µg/mL)

Tested on: MRSA BEL 97597
Assay: MIC agar dilution, MRSA strain 33
Assay type: cell-based
Conditions: Staphylococcus aureus, 22 hrs
Experimental: as §1, §2, §3, §4, §5, §6, §7, §8, §9

SMILES	MIC
CCCCCCCCCCCCOCCOCCO [L2, Diethylene Glycol Monododecyl Ether]	110 µM (≈ 30.2 µg/mL)
CCCCCCCCCCCCOCCOCCOCCO [L3, Triethylene Glycol Monododecyl Ether]	55 µM (≈ 17.5 µg/mL)

Same assay, conditions: Staphylococcus aureus, 48 hrs

SMILES	MIC
CCCCCCCCCCCCOCCOCCO [L2, Diethylene Glycol Monododecyl Ether]	110 µM (≈ 30.2 µg/mL)
CCCCCCCCCCCCOCCOCCOCCO [L3, Triethylene Glycol Monododecyl Ether]	55 µM (≈ 17.5 µg/mL)

Tested on: Enterococcus faecium (VRE) 12185 Clin waste
Assay: MIC agar dilution, VRE strain 24
Assay type: cell-based
Conditions: 22 hrs
Experimental: as §1, §2, §3, §4, §5, §6, §7, §8, §9

SMILES	MIC
CCCCCCCCCCCCOCCOCCO [L2, Diethylene Glycol Monododecyl Ether]	> 880 µM
CCCCCCCCCCCCOCCOCCOCCO [L3, Triethylene Glycol Monododecyl Ether]	880 µM (≈ 280 µg/mL)

Same assay, conditions: 48 hrs

SMILES	MIC
CCCCCCCCCCCCOCCOCCO [L2, Diethylene Glycol Monododecyl Ether]	> 880 µM
CCCCCCCCCCCCOCCOCCOCCO [L3, Triethylene Glycol Monododecyl Ether]	> 880 µM

Tested on: MRSA GER 131/98 (Sger Iidc)
Assay: MIC agar dilution, MRSA strain 35
Assay type: cell-based
Conditions: Staphylococcus aureus, 22 hrs
Experimental: as §1, §2, §3, §4, §5, §6, §7, §8, §9

SMILES	MIC
CCCCCCCCCCCCOCCOCCO [L2, Diethylene Glycol Monododecyl Ether]	220 µM (≈ 60.4 µg/mL)
CCCCCCCCCCCCOCCOCCOCCO [L3, Triethylene Glycol Monododecyl Ether]	110 µM (≈ 35 µg/mL)

Same assay, conditions: Staphylococcus aureus, 48 hrs

SMILES	MIC
CCCCCCCCCCCCOCCOCCO [L2, Diethylene Glycol Monododecyl Ether]	220 µM (≈ 60.4 µg/mL)
CCCCCCCCCCCCOCCOCCOCCO [L3, Triethylene Glycol Monododecyl Ether]	110 µM (≈ 35 µg/mL)

Tested on: MRSA EMRSA 15 1729/98
Assay: MIC agar dilution, MRSA strain 42
Assay type: cell-based
Conditions: Staphylococcus aureus, 22 hrs
Experimental: as §1, §2, §3, §4, §5, §6, §7, §8, §9

SMILES	MIC
CCCCCCCCCCCCOCCOCCO [L2, Diethylene Glycol Monododecyl Ether]	110 µM (≈ 30.2 µg/mL)
CCCCCCCCCCCCOCCOCCOCCO [L3, Triethylene Glycol Monododecyl Ether]	110 µM (≈ 35 µg/mL)

Same assay, conditions: Staphylococcus aureus, 48 hrs

SMILES	MIC
CCCCCCCCCCCCOCCOCCO [L2, Diethylene Glycol Monododecyl Ether]	110 µM (≈ 30.2 µg/mL)
CCCCCCCCCCCCOCCOCCOCCO [L3, Triethylene Glycol Monododecyl Ether]	110 µM (≈ 35 µg/mL)

Tested on: MRSA EMRSA 16 07924/95
Assay: MIC agar dilution, MRSA strain 49
Assay type: cell-based
Conditions: Staphylococcus aureus, 22 hrs
Experimental: as §1, §2, §3, §4, §5, §6, §7, §8, §9

SMILES	MIC
CCCCCCCCCCCCOCCOCCO [L2, Diethylene Glycol Monododecyl Ether]	110 µM (≈ 30.2 µg/mL)
CCCCCCCCCCCCOCCOCCOCCO [L3, Triethylene Glycol Monododecyl Ether]	55 µM (≈ 17.5 µg/mL)

Same assay, conditions: Staphylococcus aureus, 48 hrs

SMILES	MIC
CCCCCCCCCCCCOCCOCCO [L2, Diethylene Glycol Monododecyl Ether]	110 µM (≈ 30.2 µg/mL)
CCCCCCCCCCCCOCCOCCOCCO [L3, Triethylene Glycol Monododecyl Ether]	55 µM (≈ 17.5 µg/mL)

Tested on: Staphylococcus aureus (MRSA)
Assay: MIC agar dilution, micro-organism 12 (11939)
Assay type: cell-based
Conditions: Staphylococcus aureus, MRSA, 22 h, Staphylococcus aureus (MRSA) 11939; 22 hrs; read-out: MIC
In short: (§10)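 Agar dilution in Isosensitest/CCEY agar with egg yolk and lysed horse blood; compounds as aqueous emulsions (myristyl and lauryl alcohol with 1-methyl-2-pyrrolidone and Tween 20). 1 µL spots of 1/15-diluted 0.5 McFarland suspensions, 37 °C aerobic, read at 22 and 48 h; MIC (mmol/L) is lowest concentration giving <10 colonies.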

SMILES	MIC
CCCCCCCCCCCCOCCOCCO [L2, Diethylene Glycol Monododecyl Ether]	110 µM (≈ 30.2 µg/mL)
CCCCCCCCCCCCOCCOCCOCCO [L3, Triethylene Glycol Monododecyl Ether]	110 µM (≈ 35 µg/mL)

Same assay, conditions: Staphylococcus aureus, MRSA, 48 h, Staphylococcus aureus (MRSA) 11939; 48 hrs; read-out: MIC

SMILES	MIC
CCCCCCCCCCCCOCCOCCO [L2, Diethylene Glycol Monododecyl Ether]	110 µM (≈ 30.2 µg/mL)
CCCCCCCCCCCCOCCOCCOCCO [L3, Triethylene Glycol Monododecyl Ether]	110 µM (≈ 35 µg/mL)

Tested on: Enterococcus faecium (VRE) 255693 N. Tyneside
Assay: MIC agar dilution, VRE strain 22
Assay type: cell-based
Conditions: 22 hrs
Experimental: as §1, §2, §3, §4, §5, §6, §7, §8, §9

SMILES	MIC
CCCCCCCCCCCCOCCOCCO [L2, Diethylene Glycol Monododecyl Ether]	440 µM (≈ 121 µg/mL)
CCCCCCCCCCCCOCCOCCOCCO [L3, Triethylene Glycol Monododecyl Ether]	880 µM (≈ 280 µg/mL)

Same assay, conditions: 48 hrs

SMILES	MIC
CCCCCCCCCCCCOCCOCCO [L2, Diethylene Glycol Monododecyl Ether]	440 µM (≈ 121 µg/mL)
CCCCCCCCCCCCOCCOCCOCCO [L3, Triethylene Glycol Monododecyl Ether]	> 880 µM

Tested on: MRSA EMRSA 15 21268/98
Assay: MIC agar dilution, MRSA strain 40
Assay type: cell-based
Conditions: Staphylococcus aureus, 22 hrs
Experimental: as §1, §2, §3, §4, §5, §6, §7, §8, §9

SMILES	MIC
CCCCCCCCCCCCOCCOCCO [L2, Diethylene Glycol Monododecyl Ether]	110 µM (≈ 30.2 µg/mL)
CCCCCCCCCCCCOCCOCCOCCO [L3, Triethylene Glycol Monododecyl Ether]	110 µM (≈ 35 µg/mL)

Same assay, conditions: Staphylococcus aureus, 48 hrs

SMILES	MIC
CCCCCCCCCCCCOCCOCCO [L2, Diethylene Glycol Monododecyl Ether]	110 µM (≈ 30.2 µg/mL)
CCCCCCCCCCCCOCCOCCOCCO [L3, Triethylene Glycol Monododecyl Ether]	110 µM (≈ 35 µg/mL)

Tested on: Enterococcus faecalis (VRE) MB 1969
Assay: MIC agar dilution, VRE strain 27
Assay type: cell-based
Conditions: 22 hrs
Experimental: as §1, §2, §3, §4, §5, §6, §7, §8, §9

SMILES	MIC
CCCCCCCCCCCCOCCOCCO [L2, Diethylene Glycol Monododecyl Ether]	220 µM (≈ 60.4 µg/mL)
CCCCCCCCCCCCOCCOCCOCCO [L3, Triethylene Glycol Monododecyl Ether]	440 µM (≈ 140 µg/mL)

Same assay, conditions: 48 hrs

SMILES	MIC
CCCCCCCCCCCCOCCOCCO [L2, Diethylene Glycol Monododecyl Ether]	220 µM (≈ 60.4 µg/mL)
CCCCCCCCCCCCOCCOCCOCCO [L3, Triethylene Glycol Monododecyl Ether]	440 µM (≈ 140 µg/mL)

Tested on: MRSA BEL 97598
Assay: MIC agar dilution, MRSA strain 34
Assay type: cell-based
Conditions: Staphylococcus aureus, 22 hrs
Experimental: as §1, §2, §3, §4, §5, §6, §7, §8, §9

SMILES	MIC
CCCCCCCCCCCCOCCOCCO [L2, Diethylene Glycol Monododecyl Ether]	110 µM (≈ 30.2 µg/mL)
CCCCCCCCCCCCOCCOCCOCCO [L3, Triethylene Glycol Monododecyl Ether]	110 µM (≈ 35 µg/mL)

Same assay, conditions: Staphylococcus aureus, 48 hrs

SMILES	MIC
CCCCCCCCCCCCOCCOCCO [L2, Diethylene Glycol Monododecyl Ether]	220 µM (≈ 60.4 µg/mL)
CCCCCCCCCCCCOCCOCCOCCO [L3, Triethylene Glycol Monododecyl Ether]	110 µM (≈ 35 µg/mL)

Tested on: Staphylococcus aureus
Assay: MIC agar dilution, micro-organism 13 (6571)
Assay type: cell-based
Conditions: Staphylococcus aureus, 22 h, Staphylococcus aureus 6571; 22 hrs; read-out: MIC
In short: as §10

SMILES	MIC
CCCCCCCCCCCCOCCOCCO [L2, Diethylene Glycol Monododecyl Ether]	110 µM (≈ 30.2 µg/mL)
CCCCCCCCCCCCOCCOCCOCCO [L3, Triethylene Glycol Monododecyl Ether]	≤ 50 µM

Same assay, conditions: Staphylococcus aureus, 48 h, Staphylococcus aureus 6571; 48 hrs; read-out: MIC

SMILES	MIC
CCCCCCCCCCCCOCCOCCO [L2, Diethylene Glycol Monododecyl Ether]	110 µM (≈ 30.2 µg/mL)
CCCCCCCCCCCCOCCOCCOCCO [L3, Triethylene Glycol Monododecyl Ether]	≤ 50 µM

Tested on: MRSA EMRSA 16 00036/95
Assay: MIC agar dilution, MRSA strain 46
Assay type: cell-based
Conditions: Staphylococcus aureus, 22 hrs
Experimental: as §1, §2, §3, §4, §5, §6, §7, §8, §9

SMILES	MIC
CCCCCCCCCCCCOCCOCCO [L2, Diethylene Glycol Monododecyl Ether]	110 µM (≈ 30.2 µg/mL)
CCCCCCCCCCCCOCCOCCOCCO [L3, Triethylene Glycol Monododecyl Ether]	55 µM (≈ 17.5 µg/mL)

Same assay, conditions: Staphylococcus aureus, 48 hrs

SMILES	MIC
CCCCCCCCCCCCOCCOCCO [L2, Diethylene Glycol Monododecyl Ether]	110 µM (≈ 30.2 µg/mL)
CCCCCCCCCCCCOCCOCCOCCO [L3, Triethylene Glycol Monododecyl Ether]	55 µM (≈ 17.5 µg/mL)
